Results as given in PubChem BioAssay AID248 (DTP/NCI, 2004).
Several values for one entry are separate records, joined by “and”; a condition that tells them apart may be missing. Equal values may be shown once. Inconclusive results and toxic doses are left out. Cut-off read from the data, not from the text of the source: active = T/C of 150% or more; inactive = T/C below 125%.

System: L1210 leukemia ip in BDF1 mice, survival T/C
Test: NCI In Vivo Anticancer Drug Screen. Data for tumor model L1210 Leukemia (intraperitoneal) in B6D2F1 (BDF1) mice
Details: endpoint: mean survival time, higher = longer survival
Procedure, shortened: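 In this screen, tumor-bearing mice given compound are compared to those given vehicle, and their survival values are reported as a treated-to-control quotient.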

[1] = dose: 6.25 mg/kg/injection, schedule: Q01DX009 (ip), vehicle: saline
[2] = dose: 12.5 mg/kg/injection, schedule: Q01DX009 (ip), vehicle: saline
[3] = dose: 25.0 mg/kg/injection, schedule: Q01DX009 (ip), vehicle: saline with Tween-80
[4] = dose: 50.0 mg/kg/injection, schedule: Q01DX009 (ip), vehicle: saline with Tween-80
[5] = dose: 100.0 mg/kg/injection, schedule: Q04DX003 (ip), vehicle: saline with Tween-80
[6] = dose: 200.0 mg/kg/injection, schedule: Q04DX003 (ip), vehicle: saline with Tween-80
[7] = dose: 100.0 mg/kg/injection, schedule: Q01DX009 (ip), vehicle: saline
[8] = dose: 100.0 mg/kg/injection, schedule: Q01DX009 (ip), vehicle: Klucel (hydroxypropylcellulose) (HPC)
[9] = dose: 100.0 mg/kg/injection, schedule: Q04DX003 (ip), vehicle: Klucel (hydroxypropylcellulose) (HPC)
[10] = dose: 200.0 mg/kg/injection, schedule: Q01DX009 (ip), vehicle: Klucel (hydroxypropylcellulose) (HPC)
[11] = dose: 200.0 mg/kg/injection, schedule: Q04DX003 (ip), vehicle: Klucel (hydroxypropylcellulose) (HPC)
[12] = dose: 400.0 mg/kg/injection, schedule: Q01DX009 (ip), vehicle: Klucel (hydroxypropylcellulose) (HPC)
[13] = dose: 400.0 mg/kg/injection, schedule: Q04DX003 (ip), vehicle: Klucel (hydroxypropylcellulose) (HPC)
[14] = dose: 25.0 mg/kg/injection, schedule: Q01DX009 (ip), vehicle: saline
[15] = dose: 50.0 mg/kg/injection, schedule: Q01DX001 (ip), vehicle: saline
[16] = dose: 50.0 mg/kg/injection, schedule: Q01DX009 (ip), vehicle: saline
[17] = dose: 100.0 mg/kg/injection, schedule: Q01DX001 (ip), vehicle: saline
[18] = dose: 100.0 mg/kg/injection, schedule: Q04DX003 (ip), vehicle: saline
[19] = dose: 200.0 mg/kg/injection, schedule: Q04DX003 (ip), vehicle: saline
[20] = dose: 50.0 mg/kg/injection, schedule: Q01DX001 (ip), vehicle: Klucel (hydroxypropylcellulose) (HPC)
[21] = dose: 50.0 mg/kg/injection, schedule: Q01DX009 (ip), vehicle: Klucel (hydroxypropylcellulose) (HPC)
[22] = dose: 100.0 mg/kg/injection, schedule: Q01DX001 (ip), vehicle: Klucel (hydroxypropylcellulose) (HPC)
[23] = dose: 200.0 mg/kg/injection, schedule: Q01DX001 (ip), vehicle: Klucel (hydroxypropylcellulose) (HPC)
[24] = dose: 400.0 mg/kg/injection, schedule: Q01DX001 (ip), vehicle: Klucel (hydroxypropylcellulose) (HPC)
[25] = dose: 25.0 mg/kg/injection, schedule: Q04DX003 (ip), vehicle: saline
[26] = dose: 50.0 mg/kg/injection, schedule: Q04DX003 (ip), vehicle: saline

Measured: T/C

O=C(/C(=C\c1ccccc1)CBr)c1ccc(Br)cc1
inactive: dose: 3.12 mg/kg/injection, schedule: Q01DX009 (ip), vehicle: saline 100 % of control | [1] 100 % of control | [2] 94 % of control and 89 % of control | dose: 12.5 mg/kg/injection, schedule: Q04DX003 (ip), vehicle: saline with Tween-80 96 % of control | dose: 25.0 mg/kg/injection, schedule: Q04DX003 (ip), vehicle: saline with Tween-80 93 % of control | dose: 50.0 mg/kg/injection, schedule: Q04DX003 (ip), vehicle: saline with Tween-80 94 % of control

CC(=O)Nc1nc(Cl)c([N+](=O)[O-])c(SCc2ccccc2)n1
inactive: [3] 90 % of control | [4] 93 % of control and 97 % of control | dose: 100.0 mg/kg/injection, schedule: Q01DX009 (ip), vehicle: saline with Tween-80 101 % of control and 104 % of control | [5] 87 % of control | [6] 98 % of control

O=[As](O)(O)c1ccc(OCCO)cc1
inactive: [7] 96 % of control | dose: 200.0 mg/kg/injection, schedule: Q01DX009 (ip), vehicle: saline 96 % of control

Cc1ccc(Cl)cc1NC(=O)c1ccccc1
inactive: [8] 89 % of control | [9] 95 % of control | [10] 100 % of control | [11] 106 % of control | [12] 94 % of control | [13] 95 % of control

C[n+]1ccc(Nc2ccc(NC(=O)c3ccc(Nc4cc[n+](C)c5ccc([N+](=O)[O-])cc45)cc3[N+](=O)[O-])cc2)cc1
inactive: [2] 112 % of control | dose: 25.0 mg/kg/injection, schedule: Q01DX001 (ip), vehicle: saline 105 % of control | [14] 117 % of control | dose: 25.0 mg/kg/injection, schedule: Q04DX003 (ip), vehicle: suspension in saline 111 % of control | [15] 98 % of control | [16] 120 % of control | dose: 50.0 mg/kg/injection, schedule: Q04DX003 (ip), vehicle: suspension in saline 116 % of control | [17] 105 % of control | dose: 100.0 mg/kg/injection, schedule: Q01DX001 (ip), vehicle: suspension in saline 114 % of control | [18] 105 % of control and 104 % of control | [19] 120 % of control and 123 % of control | dose: 400.0 mg/kg/injection, schedule: Q04DX003 (ip), vehicle: suspension in saline 90 % of control | dose: 600.0 mg/kg/injection, schedule: Q04DX003 (ip), vehicle: saline 119 % of control | dose: 800.0 mg/kg/injection, schedule: Q04DX002 (ip), vehicle: saline 102 % of control and 108 % of control
active: dose: 200.0 mg/kg/injection, schedule: Q04DX003 (ip), vehicle: suspension in saline 190 % of control and 203 % of control | dose: 400.0 mg/kg/injection, schedule: Q01DX001 (ip), vehicle: suspension in saline 173 % of control and 206 % of control

NC(C(=O)c1ccccc1)c1ccccc1.[Cl][Sn][Cl] (stereo not drawn)
inactive: dose: 75.0 mg/kg/injection, schedule: Q01DX001 (ip), vehicle: saline 102 % of control | dose: 150.0 mg/kg/injection, schedule: Q01DX001 (ip), vehicle: saline 117 % of control

NC(=O)NCC(=O)O
inactive: [20] 96 % of control | [21] 91 % of control | [22] 100 % of control | [8] 100 % of control | [23] 100 % of control | [10] 96 % of control | [24] 94 % of control

CN1c2cccc[c]2[Sn]([c]2ccccc2)([c]2ccccc2)[c]2ccccc21
inactive: dose: 100.0 mg/kg/injection, schedule: Q01DX001 (ip), vehicle: steriod suspending solution 94 % of control | dose: 200.0 mg/kg/injection, schedule: Q01DX001 (ip), vehicle: steriod suspending solution 94 % of control | dose: 400.0 mg/kg/injection, schedule: Q01DX001 (ip), vehicle: steriod suspending solution 100 % of control

NS(=O)(=O)c1cccc([N+](=O)[O-])c1
inactive: dose: 20.0 mg/kg/injection, schedule: Q04DX003 (ip), vehicle: Klucel (hydroxypropylcellulose) (HPC) 104 % of control | dose: 25.0 mg/kg/injection, schedule: Q01DX009 (ip), vehicle: Klucel (hydroxypropylcellulose) (HPC) 107 % of control | dose: 40.0 mg/kg/injection, schedule: Q04DX003 (ip), vehicle: Klucel (hydroxypropylcellulose) (HPC) 98 % of control | [21] 100 % of control | dose: 80.0 mg/kg/injection, schedule: Q04DX003 (ip), vehicle: Klucel (hydroxypropylcellulose) (HPC) 107 % of control | [8] 96 % of control | [9] 96 % of control

CN(C)CNC=O
inactive: [14] 86 % of control | [16] 96 % of control | [7] 96 % of control and 99 % of control | [18] 103 % of control | [19] 106 % of control | dose: 400.0 mg/kg/injection, schedule: Q04DX003 (ip), vehicle: saline 97 % of control

CN(C)C1=NS(=O)(=O)N=C(N(C)c2ccccc2)O1
inactive: [22] 109 % of control | [9] 97 % of control | [23] 101 % of control | [11] 105 % of control | [24] 103 % of control | [13] 103 % of control

CC(C)(OC(=O)C(NC=O)C(C)(C)S)OC(=O)C(NC=O)C(C)(C)S (stereo not drawn)
inactive: [5] 98 % of control | [6] 95 % of control | dose: 400.0 mg/kg/injection, schedule: Q04DX003 (ip), vehicle: saline with Tween-80 100 % of control

CCC1([N+](=O)[O-])COP(=O)(N2CC2C)OC1 (stereo not drawn)
inactive: dose: 100.0 mg/kg/injection, schedule: Q01DX001 (ip), vehicle: carboxymethylcellulose (CMC) 98 % of control | dose: 200.0 mg/kg/injection, schedule: Q01DX001 (ip), vehicle: carboxymethylcellulose (CMC) 96 % of control | dose: 400.0 mg/kg/injection, schedule: Q01DX001 (ip), vehicle: carboxymethylcellulose (CMC) 98 % of control

CCn1cnc2c(C(F)(F)F)nc(N)nc21
inactive: dose: 12.5 mg/kg/injection, schedule: Q01DX001 (ip), vehicle: acetone 94 % of control | dose: 12.5 mg/kg/injection, schedule: Q01DX009 (ip), vehicle: saline with Tween-80 96 % of control | dose: 12.5 mg/kg/injection, schedule: Q04DX003 (ip), vehicle: saline 103 % of control | dose: 25.0 mg/kg/injection, schedule: Q01DX001 (ip), vehicle: acetone 94 % of control | [3] 101 % of control | [25] 87 % of control | dose: 50.0 mg/kg/injection, schedule: Q01DX001 (ip), vehicle: acetone 101 % of control | [4] 95 % of control | [26] 97 % of control

Nc1ncnc(N)c1NC(=O)C1CCCCC1
inactive: dose: 25.0 mg/kg/injection, schedule: Q01DX001 (ip), vehicle: Klucel (hydroxypropylcellulose) (HPC) 101 % of control | [20] 101 % of control

OCC1(CO)COC2(CCCC2)N1
inactive: [15] 101 % of control | [17] 97 % of control | dose: 200.0 mg/kg/injection, schedule: Q01DX001 (ip), vehicle: saline 95 % of control | dose: 400.0 mg/kg/injection, schedule: Q01DX001 (ip), vehicle: saline 103 % of control

CCC(=O)C(CC)c1ccc(OC)cc1OC (stereo not drawn)
inactive: [8] 93 % of control | [9] 103 % of control | [10] 95 % of control | [11] 101 % of control | [12] 98 % of control | [13] 103 % of control

Cc1csc2ncnc(Cl)c12
inactive: dose: 25.0 mg/kg/injection, schedule: Q04DX002 (ip), vehicle: saline with Tween-80 98 % of control | dose: 50.0 mg/kg/injection, schedule: Q04DX002 (ip), vehicle: saline with Tween-80 91 % of control | dose: 100.0 mg/kg/injection, schedule: Q04DX002 (ip), vehicle: saline with Tween-80 94 % of control

CN(C)CCCC1(C#N)c2ccccc2CCc2ccccc21
inactive: [1] 102 % of control | [2] 105 % of control | [14] 103 % of control | [25] 100 % of control | [16] 113 % of control | [26] 100 % of control | [18] 102 % of control
